Data published in patent US8741930B2 (Bridge Pharma, Inc., priority 2008, dated 2014).
Like-named read-outs stand apart in the source and are kept apart here.

Assays:
[1] = biological target: muscarinic receptors (antimuscarinic activity); settings: Wolff et al. 2007; cited from earlier work
tear flow [2] = settings: U.S. Pat. No. 7,247,623; cited from earlier work
tear flow [3] = assay: Tear flow, phenol red thread (modified Schirmer's test) after ocular instillation; type: in vivo, mice; settings: for Tear flow, length of red area of thread, Mean ± SEM: 0.07% solution, 0.05 mL twice daily, 45 min after 5th instillation, N=8; for Effect on tear flow: topical administration to the eyes of laboratory animals
Experimental: All instillations were performed twice daily and consisted of 0.05 mL. A total of five instillations were administered. Tear measurements were performed 45 minutes after the first drug instillation on Day 3, by carefully placing the bent end of a Zone-Quick phenol red impregnated cotton thread (FCI Ophthalmics, Pembrooke, Mass.) at the intercanthus of the eye and holding it in place for 30 seconds. After removal, the length of the red area of the thread was measured in millimeters. During tear measurements, all animals were lightly anesthetized with isoflurane in order to reduce movement and stress.

Maximal solubility = type: physicochemical
From the text: Ocular formulations of norketotifen to be used by individuals suffering from a dry eye syndrome may be hypotonic or isotonic. Thus, the acceptable osmolality may range from about 150 mOsm to about 350 mOsm.

histamine wheal response = assay: Antihistaminic activity in vivo: histamine-induced wheal after oral dosing; parameters: species or system rats
Experimental: Male rats (150-200 g) were starved overnight and twelve hours after dorsal depilation, the animals were orally pretreated with the test compound(s). Four dorsal test areas were marked with permanent ink, carefully avoiding the area closest to the spine. Exactly 60 min after the dosing of the test compound, two intradermal injections of histamine (50 microliter; 1.0 mg/ml of histamine di-HCl) were performed, one on each side on the back of the animal. Two intradermal injections of the vehicle for the histamine solution were also performed. Evans blue dye (20 mg/kg) was injected iv 1 minute prior to the intra-dermal injections of histamine and the histamine vehicle. Twenty minutes were allowed for the wheal response to fully develop, whereupon the animals were euthanized and the dorsal skin containing the intradermal wheals were deflected. The blue spotted areas were measured in square millimeters and the duplicate vehicle wheal responses were averaged. In vehicle-treated animals, the wheal area, on average, was increased by histamine by 98 mm^2. The inhibition was calculated in percent difference from this baseline value.

## CN(C)CC/C=C1/c2ccccc2COc2ccc(CC(=O)O)cc21 [olopatadine]
[1]
  IC50: 1740 nM
Tear flow [2]
  Effect on tear flow: reduce tear flow

## CN1CCC(=C2c3ccccc3CC(=O)c3sccc32)CC1.O=C(O)/C=C/C(=O)O [KETOTIFEN HF, reference compound]
Tear flow [3]
  Tear flow, length of red area of thread, Mean ± SEM: 4.25 ± 0.250 mm

## O=C(O)/C=C/C(=O)O.O=C1Cc2ccccc2C(=C2CCNCC2)c2ccsc21 [norketotifen hydrogen fumarate]
Tear flow [3]
  Tear flow, length of red area of thread, Mean ± SEM: 4.62 ± 0.263 mm
Maximal solubility; in saline
  Maximal solubility: 4500 µg/mL
Maximal solubility; in water
  Maximal solubility: 2700 µg/mL

## CN1CCC(=C2c3ccccc3CC(=O)c3sccc32)CC1 [Ketotifen, reference compound]
Tear flow [3]
  Effect on tear flow: not to increase tear flow

## O=C1Cc2ccccc2C(=C2CCNCC2)c2ccsc21 (racemic) [Norketotifen]
Tear flow [3]; 45 minutes after the 5th treatment
  Statistical significance of effect in modified Schirmer's test: statistically significant effects
Tear flow [3]
  Effect on tear flow: increase tear flow
Histamine wheal response; Rattus norvegicus, 1 mg/kg oral, versus vehicle histamine effect
  inhibition at 1 mg/kg: 6%
Histamine wheal response; Rattus norvegicus, 10 mg/kg oral, versus vehicle histamine effect
  inhibition at 10 mg/kg: 83%
Histamine wheal response; rats, oral
  Absorption after oral administration: well absorbed
